Data taken from PMC6792352, “Limited Chemical Structural Diversity Found to Modulate Thyroid Hormone Receptor in the Tox21 Chemical Library” (Environmental Health Perspectives, 2019).
Structures can show the parent of a compound that is named as a salt.

Assay: in vitro
Settings: rat, gh3-tre-luc cells, AC50 (uM) modified / 1000

Point of comparison: C[C@H](/C=C/[C@H](C)C(C)(C)O)[C@H]1CC[C@H]2/C(=C/C=C3C[C@@H](O)C[C@H](O)C3)CCC[C@]12C [Paricalcitol], CC50 at 24 h 27 µM. Against it:
- CC1=NN(c2ccc(C(=O)O)cc2)C(=O)C1 [4-(3-Methyl-5-oxo-4,5-dihydro-1H-pyrazol-1-yl)benzoic acid] — higher, > 90 µM
- COC(=O)[C@H]1[C@H]2C[C@H]3c4[nH]c5ccccc5c4CCN3C[C@H]2CC[C@@H]1O [Rauwolscine] — higher, > 50 µM
- O=C1CCCC=CCCCCCCCCCC1 [5-Cyclohexadecen-1-one] — 2.7-fold higher, 74.1 µM
- O=C(O)CCCCCCCC(=O)O [Nonanedioic acid] — higher, > 90 µM
- CCCCCN(C)CCC(O)(P(=O)(O)O)P(=O)(O)O [Ibandronate sodium] — higher, > 50 µM
- CCCCCCCC/C=C\CCCCCCCCO [(9Z)-Octadec-9-en-1-ol] — higher, > 90 µM
- CCN(CC)c1ccc(N=Nc2ccc(S(=O)(=O)N(C)C)cc2)c(S(=O)(=O)NCC[n+]2ccccc2)c1 [1-[2-({[5-Diethylamino)-2-{[4-(dimethylsulfamoyl)phenyl]diazenyl}phenyl]sulfonyl}amino)ethyl]pyridinium chloride] — higher, > 50 µM
- CCCCC(CC)COC(=O)c1ccc(C(=O)OCC(CC)CCCC)c(C(=O)OCC(CC)CCCC)c1 (stereo not drawn) [Tris(2-ethylhexyl) trimellitate] — higher, > 90 µM
- CCO[C@@H](Cc1ccc(OCCc2ccc(OS(C)(=O)=O)cc2)cc1)C(=O)O [Tesaglitazar] — higher, > 50 µM
- C=C(C)C1CCC(C)(O)CC1 (stereo not drawn) [beta-Terpineol] — higher, > 90 µM
- C[N+](C)(C)CCOC(=O)CCC(=O)OCC[N+](C)(C)C [Succinylcholine chloride] — higher, > 50 µM
- CC(C)COCC(CN(Cc1ccccc1)c1ccccc1)N1CCCC1 (stereo not drawn) [Bepridil] — 2.9-fold lower, 9.16 µM
- Cc1nnc2n1-c1ccc(Cl)cc1C(c1ccccc1Cl)=NC2 [Triazolam] — higher, > 50 µM
- CCCSS/C(CCO)=C(/C)N(C=O)Cc1cnc(C)nc1N [Prosultiamine] — within 1.5-fold, 22.5 µM
- CC(O)C(=O)O (stereo not drawn) [Calcium lactate] — higher, > 90 µM
- Nc1nc(N)c(N)c(N)n1 [2,4,5,6-Pyrimidinetetramine sulfate (1:1)] — higher, > 90 µM
- CCN(CC)CCCN(c1ccccc1)C1Cc2ccccc2C1 [Aprindine hydrochloride] — 12-fold lower, 2.3 µM
- CCCCCOC(=O)CCCCC [Pentyl hexanoate] — higher, > 90 µM
- Cc1cccc(C)c1 [m-Xylene] — higher, > 90 µM
- C=CC(=O)OCC1CCCO1 (stereo not drawn) [Tetrahydrofurfuryl acrylate] — higher, > 90 µM
- Cc1cc(N)c(S(=O)(=O)O)cc1Cl [2-Amino-5-chloro-4-methylbenzenesulfonic acid] — higher, > 90 µM
- C=CC(=O)NC(C)C [N-Isopropylacrylamide] — higher, > 90 µM
- O=C(O)C1(c2ccc3c(c2)OC[C@H](Cc2ccc(-c4ccccc4)cc2)[C@H]3O)CCCC1 [CP-105696] — 1.9-fold higher, 50.9 µM
- CCCOC(=O)CC [Propyl propionate] — higher, > 90 µM
- CC(C)C[C@H](NC(=O)CNC(=O)[C@H](Cc1ccc(O)cc1)NC(=O)[C@H](CO)NC(=O)[C@H](Cc1c[nH]c2ccccc12)NC(=O)[C@H](Cc1cnc[nH]1)NC(=O)[C@@H]1CCC(=O)N1)C(=O)N[C@@H](CCCNC(=N)N)C(=O)N1CCC[C@H]1C(=O)NCC(N)=O [Gonadorelin hydrochloride] — higher, > 50 µM
- CCCCC(CC)COC(=O)C(C#N)=C(c1ccccc1)c1ccccc1 (stereo not drawn) [2-Ethylhexyl-2-cyano-3,3-diphenylacrylate] — higher, > 90 µM
- CC(C)Nc1ccc(NC(C)C)c2c1C(=O)c1ccccc1C2=O [1,4-Bis(N-isopropylamino)anthraquinone] — higher, > 50 µM
- O=C(O)CNC(=O)c1ccccc1 [Hippuric acid] — higher, > 50 µM
- CC12CCC(C1)C(C)(C)C2=O (stereo not drawn) [alpha-Fenchone] — higher, > 50 µM
- N#CCCCl [3-Chloropropionitrile] — higher, > 90 µM
- COC(=O)C1=C(C)NC(C)=C(C(=O)OC(C)C)C1c1cccc2nonc12 (stereo not drawn) [Isradipine] — not separable, > 20 µM
- CCCC(C)c1ccccc1O (stereo not drawn) [2-(1-Methylbutyl)phenol] — 2-fold higher, 54.4 µM
- COc1ccc([C@]2(C#N)CC[C@@H](C(=O)O)CC2)cc1OC1CCCC1 [Cilomilast] — higher, > 50 µM
- O=CCCCC=O [Glutaraldehyde] — higher, > 90 µM
- CN(C(=O)C(Cl)Cl)c1ccc(OC(=O)c2ccco2)cc1 [Diloxanide furoate] — higher, > 50 µM
- CCN(CC)c1ccc(C(=C2C=CC(=[N+](CC)CC)C=C2)c2ccc(S(=O)(=O)O)cc2S(=O)(=O)[O-])cc1 [Sulfan blue] — higher, > 90 µM
- CC(C)OC(=O)OCOP(=O)(CO[C@H](C)Cn1cnc2c(N)ncnc21)OCOC(=O)OC(C)C [Tenofovir disoproxil fumarate] — higher, > 50 µM
- CCCCCCCCCCCCCCC[C@H](O)[C@@H](N)CO [Safingol] — higher, > 50 µM
- CC(C)(C)CC(=O)OCC(=O)[C@@]12OC(C)(C)O[C@@H]1C[C@H]1[C@@H]3CCC4=CC(=O)C=C[C@]4(C)[C@@]3(F)[C@@H](O)C[C@@]12C [Triamcinolone hexacetonide] — higher, > 50 µM
- CN1C(C)(C)CC(O)CC1(C)C [1,2,2,6,6-Pentamethylpiperidin-4-ol] — higher, > 90 µM
- CCCn1c(=O)[nH]c(=O)c2[nH]cnc21 [Enprofylline] — higher, > 50 µM
- OCCN(CCO)c1cccc(Cl)c1 [2,2'-(3-Chlorophenylimino)diethanol] — higher, > 90 µM
- CCCCCCCCCCCCCC[n+]1ccc(C)cc1 [Miripirium chloride] — 3.6-fold lower, 7.5 µM
- CC(C)(C)c1cccc(C(C)(C)C)c1O [2,6-Di-tert-butylphenol] — higher, > 90 µM
- O=C(O)c1c(Cl)ccc2cc(Cl)cnc12 [Quinclorac] — higher, > 90 µM
- CCOC(=O)c1ncn2c1CN(C)C(=O)c1c(I)cccc1-2 [Iomazenil] — higher, > 50 µM
- O=C(O)P(=O)(O)O [Foscarnet trisodium] — higher, > 50 µM
- CC(CC(=O)Cl)CC(C)(C)C (stereo not drawn) [3,5,5-Trimethylhexanoyl chloride] — higher, > 90 µM
- COc1ccc([N+](=O)[O-])cc1N [2-Methoxy-5-nitroaniline] — higher, > 90 µM
- CC[N+](CC)(CC)CCOC(=O)C(C1CCCC1)C1CCCC1 [Diponium bromide] — higher, > 50 µM
- Cc1c(O)c(=O)ccn1C [Deferiprone] — higher, > 50 µM
- CC(C)CCOC(=O)CC(C)C [3-Methylbutyl 3-methylbutanoate] — higher, > 90 µM
- CCCCCCCCOCCC#N [3-(Octyloxy)propanenitrile] — higher, > 90 µM
- O=C(NOC[C@H](O)CO)c1ccc(F)c(F)c1Nc1ccc(I)cc1F [PD 0325901] — higher, > 50 µM
- Cc1ccc(S(=O)(=O)N=C=O)cc1 [p-Toluenesulphonyl isocyanate] — higher, > 90 µM
- O=C(O)c1nc(Cl)c(Cl)c(Cl)c1Cl [3,4,5,6-Tetrachloropyridine-2-carboxylic acid] — higher, > 90 µM
- CS(=O)(=O)Cl [Methanesulfonyl chloride] — higher, > 90 µM
- O=S(=O)(c1cccc2cnccc12)N1CCCNCC1 [Fasudil hydrochloride] — higher, > 50 µM
- CC1CCCC1 [Methylcyclopentane] — higher, > 90 µM
- CC(C)(c1cc(Br)c(OCC(Br)CBr)c(Br)c1)c1cc(Br)c(OCC(Br)CBr)c(Br)c1 (stereo not drawn) [Tetrabromobisphenol A-bis(2,3-dibromopropyl ether)] — higher, > 50 µM
- COc1ccc(C(=O)Nc2ccccc2)cc1[N+](=O)[O-] [4-Methoxy-3-nitro-N-phenylbenzamide] — higher, > 90 µM
- C=C1C[C@@]23CC[C@H]4[C@@](C)(CCC[C@@]4(C)C(=O)O[C@@H]4O[C@H](CO)[C@@H](O)[C@H](O)[C@H]4O)[C@@H]2CC[C@]1(O[C@@H]1O[C@H](CO)[C@@H](O)[C@H](O)[C@H]1O[C@@H]1O[C@H](CO)[C@@H](O)[C@H](O[C@@H]2O[C@H](CO)[C@@H](O)[C@H](O)[C@H]2O)[C@H]1O)C3 [Rebaudioside A] — higher, > 90 µM
- Nc1nc(=O)n([C@@H]2CS[C@H](CO)O2)cc1F [Emtricitabine] — higher, > 50 µM
- COc1c(Cl)ccc(Cl)c1C(=O)O [Dicamba] — higher, > 90 µM
- Cc1ccc2nc(-c3ccc(N)cc3)sc2c1S(=O)(=O)O — higher, > 50 µM
- C/C=C/C=N/NC(=O)c1ccncc1 [Crotoniazide] — higher, > 50 µM
- Oc1ccc(C2CNCCc3c2cc(O)c(O)c3Cl)cc1 (stereo not drawn) [Fenoldopam] — higher, > 50 µM
- C=C(C)C(=O)OCc1ccccc1 [Benzyl methacrylate] — higher, > 90 µM
- CCN(CC)CCOc1ccc2nc(N(C)C)sc2c1 [Diamthazole] — higher, > 50 µM

Same assay, conditions: rat, gh3-tre-luc cells, AC50 (uM) modified / 1000, Tox21_110001=Tox21_112111; viability, 1 nM T3 present, 24 h

With C[C@]12CCC(=O)C(O)=C1CC[C@@H]1[C@@H]2CC[C@]2(C)C(=O)CC[C@@H]12 [4-Hydroxyandrostenedione] the CC50 at 24 h was over 50 µM.

Same assay, conditions: rat, gh3-tre-luc cells, AC50 (uM) modified / 1000, Tox21_110001=Tox21_112893; viability, 1 nM T3 present, 24 h

Work on CCCN(CCC)CCc1c[nH]c2ccccc12 [N,N-Dipropyltryptamine hydrochloride] yielded a CC50 at 24 h of 39.8 µM.

Same assay, conditions: rat, gh3-tre-luc cells, AC50 (uM) modified / 1000, Tox21_110001=Tox21_200102; viability, 1 nM T3 present, 24 h

With BrCCc1ccccc1 [Phenethyl bromide] the CC50 at 24 h was over 90 µM.

Same assay, conditions: rat, gh3-tre-luc cells, AC50 (uM) modified / 1000, Tox21_110001=Tox21_200660; viability, 1 nM T3 present, 24 h

For C[N+](C)(C)C [Tetramethylammonium chloride], the CC50 at 24 h was over 90 µM.

Same assay, conditions: rat, gh3-tre-luc cells, AC50 (uM) modified / 1000, Tox21_110001=Tox21_202419; viability, 1 nM T3 present, 24 h

Cl/C=C/Cl [(E)-1,2-Dichloroethylene] gave a CC50 at 24 h of over 90 µM.

Same assay, conditions: rat, gh3-tre-luc cells, AC50 (uM) modified / 1000, Tox21_110001=Tox21_202862; viability, 1 nM T3 present, 24 h

CCCCCCI [1-Iodohexane] showed a CC50 at 24 h of over 90 µM.

Same assay, conditions: rat, gh3-tre-luc cells, AC50 (uM) modified / 1000, Tox21_110001=Tox21_202886; viability, 1 nM T3 present, 24 h

For O=[N+]([O-])c1cccc2cccc([N+](=O)[O-])c12 [1,8-Dinitronaphthalene], the CC50 at 24 h was over 90 µM.

Same assay, conditions: rat, gh3-tre-luc cells, AC50 (uM) modified / 1000, Tox21_110001=Tox21_302286; viability, 1 nM T3 present, 24 h

Molecule C[C@]12CCC(=O)C(O)=C1CC[C@@H]1[C@@H]2CC[C@]2(C)C(=O)CC[C@@H]12 [4-Hydroxyandrostenedione] has a CC50 at 24 h of over 90 µM.
